The source of these data is US7842802B2, “Vinorelbine derivatives” (priority 2003, dated 2010).

Bounds are passed on as bounds.

In one assay the test system is HCT-116. The assay is described as follows: NCI 60-cell line growth inhibition assay, HCT-116. Format: cell-based, human. The following applies: Colon. An excerpt:
(§1) The following data in Table 4 summarize the growth inhibition properties of several compounds of the present invention against 60-human transformed cell lines.

Another assay relates to MDA-MB-231/ATCC. In words: NCI 60-cell line growth inhibition assay, MDA-MB-231/ATCC. It counts as cell-based, human. The following applies: Breast.
Source text: as §1

A further assay has as its system SN12C. In words: NCI 60-cell line growth inhibition assay, SN12C. Format: cell-based, human. Conditions: Renal.
Source text: as §1

The next assay has as its system HCT-15. In words: NCI 60-cell line growth inhibition assay, HCT-15. It counts as cell-based, human. The following applies: Colon.
Source text: as §1

Another assay has as its system U251. The assay is described as follows: NCI 60-cell line growth inhibition assay, U251. Format: cell-based, human.
Source text: as §1

A further assay relates to MDA-MB-435. In words: NCI 60-cell line growth inhibition assay, MDA-MB-435. Conditions: Breast. Format: cell-based, human.
Source text: as §1

A further assay has as its system ACHN. In words: NCI 60-cell line growth inhibition assay, ACHN. Format: cell-based, human. Conditions: Renal.
Source text: as §1

For the next assay, the system named is A498. In words: NCI 60-cell line growth inhibition assay, A498. Format: cell-based, human. The following applies: Renal.
Source text: as §1

A further assay concerns 786-0. The assay is described as follows: NCI 60-cell line growth inhibition assay, 786-0. Conditions: Renal. It counts as cell-based, human.
Source text: as §1

The test system of a further assay is LOX IMVI. The assay is described as follows: NCI 60-cell line growth inhibition assay, LOX IMVI. Format: cell-based, human. Conditions: Melanoma.
Source text: as §1

The next assay deals with CAKI-1. The assay is described as follows: NCI 60-cell line growth inhibition assay, CAKI-1. It counts as cell-based, human. Conditions: Renal.
Source text: as §1

A further assay deals with BT-549. The assay is described as follows: NCI 60-cell line growth inhibition assay, BT-549. Conditions: Breast. It counts as cell-based, human.
Source text: as §1

Another assay has as its system OVCAR-3. In words: NCI 60-cell line growth inhibition assay, OVCAR-3. It counts as cell-based, human. Conditions: Ovarian.
Source text: as §1

The test system of another assay is UO-31. In words: NCI 60-cell line growth inhibition assay, UO-31. The following applies: Renal. It counts as cell-based, human.
Source text: as §1

For the next assay, the system named is NCI-H460. In words: NCI 60-cell line growth inhibition assay, NCI-H460. Format: cell-based, human. The following applies: Non-Small Cell Lung.
Source text: as §1

The test system of a further assay is NCI-H322M. In words: NCI 60-cell line growth inhibition assay, NCI-H322M. Conditions: Non-Small Cell Lung. It counts as cell-based, human.
Source text: as §1

The test system of another assay is COLO 205. The assay is described as follows: NCI 60-cell line growth inhibition assay, COLO 205. Conditions: Homo sapiens, Colon. Format: cell-based.
Source text: as §1

The next assay relates to SK-MEL-28. In words: NCI 60-cell line growth inhibition assay, SK-MEL-28. It counts as cell-based. The following applies: Homo sapiens, Melanoma.
Source text: as §1

The next assay concerns SNB-19. In words: NCI 60-cell line growth inhibition assay, SNB-19. Format: cell-based. Conditions: Homo sapiens, CNS.
Source text: as §1

In a further assay the test system is EKVX. The assay is described as follows: NCI 60-cell line growth inhibition assay, EKVX. Format: cell-based. Conditions: Homo sapiens, Non-Small Cell Lung.
Source text: as §1

The test system of another assay is SK-OV-3. The assay is described as follows: NCI 60-cell line growth inhibition assay, SK-OV-3. Conditions: Homo sapiens, Ovarian. It counts as cell-based.
Source text: as §1

The next assay deals with SK-MEL-5. The assay is described as follows: NCI 60-cell line growth inhibition assay, SK-MEL-5. The following applies: Homo sapiens, Melanoma. Format: cell-based.
Source text: as §1

The subject of a further assay is OVCAR-4. The assay is described as follows: NCI 60-cell line growth inhibition assay, OVCAR-4. It counts as cell-based. The following applies: Homo sapiens, Ovarian.
Source text: as §1

A further assay deals with MOLT-4. The assay is described as follows: NCI 60-cell line growth inhibition assay, MOLT-4. It counts as cell-based. The following applies: Homo sapiens, Leukemia.
Source text: as §1

A further assay has as its system OVCAR-5. The assay is described as follows: NCI 60-cell line growth inhibition assay, OVCAR-5. Format: cell-based. The following applies: Homo sapiens, Ovarian.
Source text: as §1

The subject of a further assay is HCC-2998. The assay is described as follows: NCI 60-cell line growth inhibition assay, HCC-2998. It counts as cell-based. The following applies: Homo sapiens, Colon.
Source text: as §1

As usually defined, the GI50 is the concentration giving 50% growth inhibition. Read a high GI50 as lower sensitivity of the cells. 11′-bromovinorelbine [Example 1]: the GI50 in the assay with HCT-116, in the assay with MDA-MB-231/ATCC, in the assay on SN12C, in the assay on HCT-15, with U251 (CNS) and in the assay on MDA-MB-435 was < 10 nM in each case. The GI50 was 3230 nM with ACHN; < 10 nM with A498; < 10 nM in the assay with 786-0; < 10 nM in the assay with LOX IMVI; < 10 nM with CAKI-1; < 10 nM in the assay on BT-549. Besides, the GI50 in the assay with OVCAR-3, in the assay on UO-31, in the assay with NCI-H460 and in the assay with NCI-H322M was < 10 nM each time.

On to `CCC1=C[C@H]2CN(C1)Cc1c([nH]c3ccc(I)cc13)[C@@](C(=O)OC)(c1cc3c(cc1OC)N(C)[C@H]1[C@@](O)(C(=O)OC)[C@H](OC(C)=O)C4C(CC)=CCN5CC[C@]31[C@H]45)C2` (some centres unmarked) [Example 2, 11′-iodovinorelbine], for which the 50% growth inhibitory concentration (GI50) with MDA-MB-231/ATCC (Homo sapiens) was 77.2 nM; with SN12C (Homo sapiens), 70.8 nM; with HCT-15 (Homo sapiens) it was 1070 nM; in the assay on COLO 205, 17.9 nM; with U251 (Homo sapiens, U-251, CNS) it was 42.3 nM; with MDA-MB-435 (Homo sapiens) it was 1370 nM. For the same compound, the GI50 came to 91.4 nM in the assay on SK-MEL-28; 1430 nM with ACHN (Homo sapiens); 62.5 nM in the assay with SNB-19; 72.6 nM with EKVX; 31.3 nM with LOX IMVI (Homo sapiens); 63.3 nM in the assay on SK-OV-3. The GI50 in the assay on SK-MEL-5 worked out at 18.8 nM; in the assay on OVCAR-4, 264 nM; with UO-31 (Homo sapiens), 674 nM; in the assay with MOLT-4, 24.1 nM; with NCI-H460 (Homo sapiens) it was 43.2 nM; in the assay on OVCAR-5, 225 nM. Further, the GI50 in the assay on HCC-2998 was < 10 nM.
